Reference: PubChem BioAssay AID1259407 (Chemical Carcinogenesis Research Information System (CCRIS), 2018)
The source made the active and inactive calls. How the calls were made is not given here.

Tested on: CCRIS mutagenicity, Ames/micronucleus/aberration tests
Assay: CCRIS mutagenicity studies
[1] = Test System: AMES SALMONELLA TYPHIMURIUM, Strain/Indicator: TA100, Metabolic Activation: NONE, Method: STANDARD PLATE
[2] = Test System: AMES SALMONELLA TYPHIMURIUM, Strain/Indicator: TA98, Metabolic Activation: NONE, Method: STANDARD PLATE
[3] = Test System: AMES SALMONELLA TYPHIMURIUM, Strain/Indicator: TA98, Metabolic Activation: RAT, LIVER, S-9, AROCLOR 1254, Method: STANDARD PLATE
[4] = Test System: AMES SALMONELLA TYPHIMURIUM, Strain/Indicator: TA100, Metabolic Activation: RAT, LIVER, S-9, AROCLOR 1254, Method: STANDARD PLATE
[5] = Test System: AMES SALMONELLA TYPHIMURIUM, Strain/Indicator: TA1535, Metabolic Activation: NONE, Method: STANDARD PLATE
[6] = Test System: AMES SALMONELLA TYPHIMURIUM, Strain/Indicator: TA1537, Metabolic Activation: NONE, Method: STANDARD PLATE
[7] = Test System: AMES SALMONELLA TYPHIMURIUM, Strain/Indicator: TA1538, Metabolic Activation: NONE, Method: STANDARD PLATE

With `CNC(=C[N+](=O)[O-])NCCSCc1ccc(CN(C)C)o1` the mutagenic call (Test System: AMES SALMONELLA TYPHIMURIUM, Strain/Indicator: TA92, Metabolic Activation: NONE, Method: PREINCUBATION) was “inactive; negative”, the mutagenic call (Test System: AMES SALMONELLA TYPHIMURIUM, Strain/Indicator: TA92, Metabolic Activation: RAT, LIVER, S-9, PHENOBARBITAL AND 5,6-BENZOFLAVONE, Method: PREINCUBATION) was “inactive; negative” and the mutagenic call (Test System: AMES SALMONELLA TYPHIMURIUM, Strain/Indicator: TA94, Metabolic Activation: NONE, Method: PREINCUBATION) was “inactive; negative”. The mutagenic call (Test System: AMES SALMONELLA TYPHIMURIUM, Strain/Indicator: TA94, Metabolic Activation: RAT, LIVER, S-9, PHENOBARBITAL AND 5,6-BENZOFLAVONE, Method: PREINCUBATION) was “inactive; negative”, the mutagenic call (Test System: AMES SALMONELLA TYPHIMURIUM, Strain/Indicator: TA98, Metabolic Activation: NONE, Method: PREINCUBATION) was “inactive; negative” and the mutagenic call (Test System: AMES SALMONELLA TYPHIMURIUM, Strain/Indicator: TA98, Metabolic Activation: RAT, LIVER, S-9, PHENOBARBITAL AND 5,6-BENZOFLAVONE, Method: PREINCUBATION) was “inactive; negative”. For the same compound, the mutagenic call (Test System: AMES SALMONELLA TYPHIMURIUM, Strain/Indicator: TA100, Metabolic Activation: NONE, Method: PREINCUBATION) was “inactive; negative”, the mutagenic call (Test System: AMES SALMONELLA TYPHIMURIUM, Strain/Indicator: TA100, Metabolic Activation: RAT, LIVER, S-9, PHENOBARBITAL AND 5,6-BENZOFLAVONE, Method: PREINCUBATION) was “inactive; negative” and the mutagenic call (Test System: AMES SALMONELLA TYPHIMURIUM, Strain/Indicator: TA1535, Metabolic Activation: NONE, Method: PREINCUBATION) was “inactive; negative”. For the same compound, the mutagenic call (Test System: AMES SALMONELLA TYPHIMURIUM, Strain/Indicator: TA1535, Metabolic Activation: RAT, LIVER, S-9, PHENOBARBITAL AND 5,6-BENZOFLAVONE, Method: PREINCUBATION) was “inactive; negative”, the mutagenic call (Test System: AMES SALMONELLA TYPHIMURIUM, Strain/Indicator: TA1537, Metabolic Activation: NONE, Method: PREINCUBATION) was “inactive; negative” and the mutagenic call (Test System: AMES SALMONELLA TYPHIMURIUM, Strain/Indicator: TA1537, Metabolic Activation: RAT, LIVER, S-9, PHENOBARBITAL AND 5,6-BENZOFLAVONE, Method: PREINCUBATION) was “inactive; negative”. For the same compound, the mutagenic call (Test System: AMES SALMONELLA TYPHIMURIUM, Strain/Indicator: TA1538, Metabolic Activation: NONE, Method: PREINCUBATION) was “inactive; negative”, the mutagenic call (Test System: AMES SALMONELLA TYPHIMURIUM, Strain/Indicator: TA1538, Metabolic Activation: RAT, LIVER, S-9, PHENOBARBITAL AND 5,6-BENZOFLAVONE, Method: PREINCUBATION) was “inactive; negative” and the mutagenic call (Test System: E. COLI, Strain/Indicator: WP2 UVRA, Metabolic Activation: NONE, Method: PREINCUBATION) was “inactive; negative”. The mutagenic call (Test System: E. COLI, Strain/Indicator: WP2 UVRA, Metabolic Activation: RAT, LIVER, S-9, PHENOBARBITAL AND 5,6-BENZOFLAVONE, Method: PREINCUBATION) was “inactive; negative”.
In the case of `O=C(CCCCl)N=c1sn(C(=O)CCCCl)c2ccc([N+](=O)[O-])cc12`, the mutagenic call (Test System: AMES SALMONELLA TYPHIMURIUM, Strain/Indicator: TA100, Metabolic Activation: S-9, Method: STANDARD PLATE) is reported as “active; positive”.
For `CCN[C@H](C)C[C@@H](C)NCC.[Cl-].[Cl-].[Pt+2]`, the mutagenic call (Test System: AMES SALMONELLA TYPHIMURIUM, Strain/Indicator: TA97A, Metabolic Activation: NONE, Method: STANDARD PLATE) was “inactive; negative” and the mutagenic call [1] was “inactive; negative”.
In the case of `CC(=O)N(O)c1ccccc1`, the mutagenic call [2] is reported as “inactive; negative”, the mutagenic call [3] is reported as “inactive; negative” and the mutagenic call [1] is reported as “inactive; negative”. The mutagenic call [4] was “inactive; negative”.
`Cc1ccc2c(c1Nc1ccccc1)C(=O)c1ccccc1C2=O` was tested, and the mutagenic call [2] was “inactive; negative”, the mutagenic call [3] was “inactive; negative” and the mutagenic call [4] was “active; positive”. For the same compound, the mutagenic call [5] was “inactive; negative”, the mutagenic call (Test System: AMES SALMONELLA TYPHIMURIUM, Strain/Indicator: TA1535, Metabolic Activation: RAT, LIVER, S-9, AROCLOR 1254, Method: STANDARD PLATE) was “inactive; negative” and the mutagenic call [6] was “inactive; negative”. For the same compound, the mutagenic call (Test System: AMES SALMONELLA TYPHIMURIUM, Strain/Indicator: TA1537, Metabolic Activation: RAT, LIVER, S-9, AROCLOR 1254, Method: STANDARD PLATE) was “inactive; negative”, the mutagenic call [7] was “inactive; negative” and the mutagenic call (Test System: AMES SALMONELLA TYPHIMURIUM, Strain/Indicator: TA1538, Metabolic Activation: RAT, LIVER, S-9, AROCLOR 1254, Method: STANDARD PLATE) was “inactive; negative”.
For `CCN(CCCl)c1ccc(OCCCCCNc2c3ccccc3nc3ccccc23)cc1`, the mutagenic call (Test System: AMES SALMONELLA TYPHIMURIUM, Strain/Indicator: DG1588, Metabolic Activation: NONE, Method: STANDARD PLATE) was “inactive; negative”, the mutagenic call (Test System: AMES SALMONELLA TYPHIMURIUM, Strain/Indicator: DG1592, Metabolic Activation: NONE, Method: STANDARD PLATE) was “inactive; negative” and the mutagenic call (Test System: AMES SALMONELLA TYPHIMURIUM, Strain/Indicator: DG1593, Metabolic Activation: NONE, Method: STANDARD PLATE) was “active; positive”. For the same compound, the mutagenic call [2] was “active; positive”, the mutagenic call [1] was “active; positive” and the mutagenic call (Test System: AMES SALMONELLA TYPHIMURIUM, Strain/Indicator: TA102, Metabolic Activation: NONE, Method: STANDARD PLATE) was “inactive; negative”. For the same compound, the mutagenic call (Test System: AMES SALMONELLA TYPHIMURIUM, Strain/Indicator: TA104, Metabolic Activation: NONE, Method: STANDARD PLATE) was “inactive; negative”, the mutagenic call [5] was “inactive; negative” and the mutagenic call (Test System: AMES SALMONELLA TYPHIMURIUM, Strain/Indicator: TA1537 (PKM101), Metabolic Activation: NONE, Method: STANDARD PLATE) was “active; positive”. The mutagenic call [6] was “active; positive”, the mutagenic call [7] was “inactive; negative” and the mutagenic call (Test System: AMES SALMONELLA TYPHIMURIUM, Strain/Indicator: TA1975 (PKM101), Metabolic Activation: NONE, Method: STANDARD PLATE) was “inactive; negative”. For the same compound, the mutagenic call (Test System: AMES SALMONELLA TYPHIMURIUM, Strain/Indicator: TA1975, Metabolic Activation: NONE, Method: STANDARD PLATE) was “inactive; negative”, the mutagenic call (Test System: AMES SALMONELLA TYPHIMURIUM, Strain/Indicator: TA1977, Metabolic Activation: NONE, Method: STANDARD PLATE) was “active; positive” and the mutagenic call (Test System: AMES SALMONELLA TYPHIMURIUM, Strain/Indicator: TA1978 (PKM101), Metabolic Activation: NONE, Method: STANDARD PLATE) was “active; positive”. For the same compound, the mutagenic call (Test System: AMES SALMONELLA TYPHIMURIUM, Strain/Indicator: TA1978, Metabolic Activation: NONE, Method: STANDARD PLATE) was “inactive; negative”, the mutagenic call (Test System: AMES SALMONELLA TYPHIMURIUM, Strain/Indicator: TA4001, Metabolic Activation: NONE, Method: STANDARD PLATE) was “active; positive” and the mutagenic call (Test System: AMES SALMONELLA TYPHIMURIUM, Strain/Indicator: TA4006, Metabolic Activation: NONE, Method: STANDARD PLATE) was “inactive; negative”.
